Usually melting point stands for the temperature, or range, at which the solid turns liquid. As usually defined, the ED50 is the dose that gives a 50% effect, or the effect in half of the subjects.

Drawing on US7105553B2, “Thiazolyl amide derivatives” (Bayer Aktiengesellschaft, priority 1999, dated 2006), this text covers IC50, melting point and ED50 for seven compounds.

One data set relates to HSV-1 F. In words: anti-HSV screening test (cytopathogenic effect, fluorescein diacetate read-out), HSV-1 F on Vero cells. It is filed as cell-based. As to conditions: read-out: IC50 HSV-1 F/Vero. As for the experimental part:
(§1) HSV (HSV-1 Walki, HSV-1F or HSV-2G) was cultivated on Vero cells (ATCC CCL-81) under the following conditions: The cells were grown in M199 medium (5% foetal calf serum, 2 mM glutamine, 100 IU/ml penicillin, 100 μg/ml streptomycin) in cell culture bottles at 37° C. and 5% CO2. The cells were splitted twice per week, in each case 1:4. For the infection, the medium was removed, the cells were washed with Hank's solution, detached using 0.05% trypsin, 0.02% EDTA (Seromed L2143) and incubated at a density of 4×10^5 cells per ml under the abovementioned conditions for 24 hours. The medium was then removed and the virus solution was added at an m.o.i of <0.05 in a volume of 2 ml per 175 cm^2 of surface. The medium was incubated under the conditions mentioned for one hour and then made up to a volume of 50 ml per 175 cm^2 bottle. […] The virus was released by freezing (−80° C.) and thawing (37° C.) the cultures twice. Cell debris was removed by centrifugation (300 g, 10 min, 4° C.) and the supernatant was frozen down in aliquots at −80° C.
(§2) The anti-HSV action was determined in a screening test system in 96-well microtitre plates using various cell lines of neuronal, lymphoid and epithelial origin, such as, for example, Vero (kidney cell line of the green monkey), MEF (murine embryonal fibroblasts), HELF (humane embryonal fibroblasts), NT2 (humane neuronal cell line) or Jurkat (humane lymphoid T-cell line).
(§3) The substances (50 mM), dissolved in DMSO (dimethyl sulphoxide), are examined on microtitre plates (for example 96-well MTP) in final concentrations of 250-0.5 μM (micromolar) in two replications (4 substances/plate). In the case of potent substances, the dilutions are continued for several plates up to 0.5 pM (picomolar). Also examined are toxic and cytostatic effects of the substances. After an appropriate dilution of the substances (1:2) on the microtitre plate in medium, a suspension of cells (1×10^4 cells per well) such as, for example, of Vero cells in M199 (medium 199) with 5% foetal calf serum, 2 mM glutamine and optionally 100 IU/ml penicillin and 100 μg/ml streptomycin or of MEF cells in EMEM (Eagle's Minimum Essential Medium) with 10% foetal calf serum, 2 mM glutamine and optionally 100 IU/ml penicillin and 100 μg/ml streptomycin, or of HELF cells in EMEM with 10% foetal calf serum, 2 mM glutamine and optionally 100 IU/ml penicillin and 100 μg/ml streptomycin, or of NT2- and Jurkat cells in DMEM ([…] glucose plus pyridoxin) with 10% foetal calf serum, 2 mM glutamine, 1 mM sodium pyruvate, non-essential amino acids and optionally 100 IU/ml penicillin and 100 μg/ml streptomycin is added to each well and the cells in the relevant wells are infected with an appropriate amount of virus (HSV-1 F or HSV-2 G having an m.o.i (multiplicity of infection) of 0.0025 for HELF, Vero and MEF cells and an m.o.i of 0.1 for NT2 and Jurkat cells). The plates are then incubated at 37° C. in a CO2 incubator (5% CO2) for several days. […] The plates are initially evaluated visually using a microscope and then analysed using a fluorescent dye. To this end, the cell supernatant of all wells of the MTP is aspirated and the wells are filled with 200 μl of PBS wash solution. The PBS is then aspirated and all the wells are filled with 200 μl of fluorescent dye solution (fluorescein diacetate, 10 μg/ml in PBS). After an incubation time of 30-90 min, the test plates are read in a fluorescence detector at an excitation wavelength of 485 nm and an emission wavelength of 538 nm.
For orientation: Damage to the host cells serves as the signal in cytopathic effect assays.

A further data set relates to HSV-2 G. In words: anti-HSV screening test (cytopathogenic effect, fluorescein diacetate read-out), HSV-2 G on Vero cells. The data set is classed as cell-based. Particulars: read-out: IC50 HSV-2 G/Vero. The protocol:
as §1, §2, §3

For a further data set, the system named is HSV-2. In words: in-vivo action: survival of intranasally HSV-infected mice. Details: species or system mice (BALB/cABom). As to conditions: Human alphaherpesvirus 2; HSV-2, intranasal infection 5×10^4 Pfu, treatment 3 times per day for 5 days from 6 hours after infection; read-out: ED50 (50% of the animals survive at this dose). The protocol: 6 week-old female mice, BALB/cABom strain were obtained from a commercial breeder (Bomholtgard Breeding and Research Centre Ltd.).
The animals were anaesthetized with diethyl ether (Merck) in a sealed glass vessel. 50 μl of a dilution of the virus stock (infection dose 5×10^4 Pfu) were introduced into the nose of the anaesthetized animals using an Eppendorf pipette. In 90-100% of the animals, this infection dose causes death by a generalized infection with prominent respiratory and central-nervous symptoms on average after 5 to 8 days.
6 hours after the infection, the animals were treated with doses of 0.1-100 mg/kg of body mass, 3 times per day, at 7 a.m., 2 p.m. and 7 p.m., for a period of 5 days. The substances were pre-dissolved in DMSO and resuspended in tylose/PBS (Hoechst) (final concentration 1.5% DMSO, 0.5% tylose in PBS).
After the last administration, the animals were monitored further and the time of death was determined.

Where [1] appears, read: Human alphaherpesvirus 1, Vero cells infected with HSV-1 F, m.o.i. 0.0025, half-maximal fluorescence intensity vs non-infected cell control.
The mark [2] stands for this setting: Human alphaherpesvirus 2, Vero cells infected with HSV-2 G, m.o.i. 0.0025, half-maximal fluorescence intensity vs non-infected cell control.

pIC50: −log10 of the molar value. Where two headings read alike, the source gives them in different places.

Consider `CNS(=O)(=O)c1sc(N(C)C(=O)Cc2ccc(-c3cc(F)ccc3C)cc2)nc1C` [Example 8], for which the melting point was 186 °C. Further, the pIC50 with HSV-1 F (setting [1]) is 7.00. Also, in the data set with HSV-2 G (setting [2]), the pIC50 is 7.00.

As to `CCOc1ccc(CC(=O)N(C)c2nc(C)c(S(=O)(=O)N(C)C)s2)cc1` [Example 14], the melting point is 154 °C. In the data set on HSV-1 F (setting [1]), the pIC50 is 7.00. Besides, the pIC50 in the data set on HSV-2 G (setting [2]) is 6.12.

The compound `CNS(=O)(=O)c1sc(N(CCN2CCCC2=O)C(=O)Cc2ccc(-c3ccccc3)cc2)nc1C` [Example 23] had a melting point of 156 °C. For the same compound, the pIC50 in the data set on HSV-1 F (setting [1]) was 7.52. Moreover, the pIC50 with HSV-2 G (setting [2]) was 7.00.

Turning to `Cc1nc(N(C)C(=O)Cc2ccc(-c3ccccn3)cc2)sc1S(N)(=O)=O` [Example 38, N-[5-(Aminosulphonyl)-4-methyl-1,3-thiazol-2-yl]-N-methyl-2-[4-(2-pyridinyl)phenyl]acetamide], the results for the pIC50 in the data set on HSV-1 F (setting [1]) and in the data set on HSV-2 G (setting [2]) were 7.30 and 7.80, respectively.

As to `Cc1nc(N(C)C(=O)Cc2ccc(-c3ccccc3F)cc2)sc1S(N)(=O)=O` [Example 57, N-[5-(Aminosulphonyl)-4-methyl-1,3-thiazol-2-yl]-2-(2′-fluoro[1,1′-biphenyl]-4-yl)-N-methylacetamide], the pIC50 with HSV-1 F (Human alphaherpesvirus 1, Vero) is more than 8.00; with HSV-2 G (Human alphaherpesvirus 2, Vero), more than 8.00. In addition, the ED50 in the data set with HSV-2 is approximately 0.7 mg/kg.

In the case of `Cc1nc(N(C)C(=O)Cc2ccc(-c3cc(F)ccc3F)cc2)sc1S(N)(=O)=O` [Example 87, N-[5-(aminosulphonyl)-4-methyl-1,3-thiazol-2-yl]-2-(2′,5′-difluoro-1,1′-biphenyl-4-yl)-N-methylacetamide], the pIC50 in the data set with HSV-1 F (setting [1]) and with HSV-2 G (setting [2]) was more than 8.00 each time.

In the case of `Cc1nc(N(C)C(=O)Cc2ccc(-n3cccn3)cc2)sc1S(N)(=O)=O` [Example 126, N-[5-(Aminosulphonyl)-4-methyl-1,3-thiazol-2-yl]-N-methyl-2-[4-(1H-pyrazol-1-yl)phenyl]acetamide], the pIC50 in the data set on HSV-1 F (setting [1]) was 8.00; with HSV-2 G (setting [2]), 7.00.
